Laboratory results: ChEMBL document CHEMBL1147292, “The structure of ulithiacyclamide B. Antitumor evaluation of cyclic peptides and macrolides from Lissoclinum patella” (J Nat Prod, 1989)
Converted amounts (≈) assume the structure as drawn.

Key:
[1] = Cytotoxicity against mouse Panc03 cells at 1.5 ug/disk by corbett disk diffusion assay; format: functional
[2] = tested on: L1210; assay: Cytotoxicity against mouse L1210 cells at 0.15 ug/disk by corbett disk diffusion assay; format: functional
[3] = Cytotoxicity against human H116 cells at 5 ug/disk by corbett disk diffusion assay; format: functional
[4] = tested on: MC-38; assay: Cytotoxicity against mouse C38 cells at 5 ug/disk by corbett disk diffusion assay; format: functional
[5] = tested on: L1210; assay: Cytotoxicity against mouse L1210 cells at 5 ug/disk by corbett disk diffusion assay; format: functional
[6] = tested on: KB; assay: Cytotoxicity against human KB cells; format: functional, cell-based
[7] = tested on: L1210; assay: Cytotoxicity against mouse L1210 cells at 100 ug/disk by corbett disk diffusion assay; format: functional
[8] = tested on: MC-38; assay: Cytotoxicity against mouse C38 cells at 100 ug/disk by corbett disk diffusion assay; format: functional
[9] = Cytotoxicity against human H116 cells at 100 ug/disk by corbett disk diffusion assay; format: functional
[10] = tested on: L1210; assay: Cytotoxicity against mouse L1210 cells at 10 ug/disk by corbett disk diffusion assay; format: functional
[11] = Cytotoxicity against human H116 cells at 10 ug/disk by corbett disk diffusion assay; format: functional
[12] = tested on: MC-38; assay: Cytotoxicity against mouse C38 cells at 10 ug/disk by corbett disk diffusion assay; format: functional
[13] = tested on: MC-38; assay: Cytotoxicity against mouse C38 cells at 200 ug/disk by corbett disk diffusion assay; format: functional
[14] = tested on: L1210; assay: Cytotoxicity against mouse L1210 cells at 200 ug/disk by corbett disk diffusion assay; format: functional
[15] = Cytotoxicity against human H116 cells at 200 ug/disk by corbett disk diffusion assay; format: functional
[16] = tested on: L1210; assay: Cytotoxicity against mouse L1210 cells at 1.5 ug/disk by corbett disk diffusion assay; format: functional
[17] = tested on: MC-38; assay: Cytotoxicity against mouse C38 cells at 1.5 ug/disk by corbett disk diffusion assay; format: functional

Nc1ccn([C@@H]2O[C@H](CO)[C@@H](O)[C@@H]2O)c(=O)n1 [CYTARABINE]
Activity [1]: 0 Zone units
Activity [2]: 550 Zone units

CCC(C)OC(=O)C1(C)CCC(C)CC(O)C(C)C(=O)C(C)/C=C\CC(C)C(O)C(O)C(OC)/C(C)=C/C=C/C(C)C(C(C)(O)/C=C(/C)Cc2csc(C3(C)OC3C)n2)OC1=O (centres undefined) [PATELLAZOLE A]
Activity [3]: 370 Zone units
Activity [4]: 320 Zone units
Activity [5]: 240 Zone units
IC50 [6]: 0.01 mg/L (≈ 0.0113 µM)

CC[C@H](C)[C@@H]1NC(=O)c2csc(n2)[C@@H](C)NC(=O)[C@H]2N=C(O[C@@H]2C)[C@H](CC(C)C)NC(=O)c2csc(n2)[C@@H](Cc2ccccc2)NC(=O)[C@H]2N=C1O[C@@H]2C [PATELLAMIDE B]
Activity [7]: 50 Zone units
Activity [8]: 150 Zone units
Activity [9]: 0 Zone units
IC50 [6]: > 4 mg/L

CC(C)C[C@H]1NC(=O)[C@H]2N=C(O[C@@H]2C)[C@H]2CSSC[C@@H](NC(=O)c3csc1n3)C1=N[C@H](C(=O)N[C@H](Cc3ccccc3)c3nc(cs3)C(=O)N2)[C@@H](C)O1 [ULITHIACYCLAMIDE B]
Activity [10]: 270 Zone units
Activity [11]: 280 Zone units
Activity [12]: 290 Zone units
IC50 [6]: 0.017 mg/L (≈ 0.0213 µM)

COC1/C(C)=C/C=C/C(C)C(C(C)(O)/C=C(/C)Cc2csc(C3(C)OC3C)n2)OC(=O)C(C)(C(=O)OC(C)C(C)O)CCC(C)CC(O)C(C)C(=O)C(C)/C=C\CC(C)C(O)C1O (centres undefined) [PATELLAZOLE B]
Activity [3]: 460 Zone units
Activity [4]: 460 Zone units
Activity [5]: 300 Zone units
IC50 [6]: 0.0003 mg/L (≈ 0.000332 µM)

CC[C@H](C)[C@@H]1NC(=O)c2csc(n2)[C@@H](C)NC(=O)[C@H]2N=C(O[C@@H]2C)[C@H](C(C)C)NC(=O)c2csc(n2)[C@@H](Cc2ccccc2)NC(=O)[C@H]2N=C1O[C@@H]2C [PATELLAMIDE C]
Activity [13]: 170 Zone units
Activity [14]: 260 Zone units
IC50 [6]: 6 mg/L (≈ 7.86 µM)
Activity [15]: 0 Zone units

CC[C@H](C)[C@@H]1NC(=O)c2csc(n2)[C@@H](C(C)C)NC(=O)[C@H]2N=C(O[C@@H]2C)[C@H]([C@@H](C)CC)NC(=O)c2csc(n2)[C@@H](C(C)C)NC(=O)[C@@H]2COC1=N2 [PATELLAMIDE A]
Activity [7]: 150 Zone units
Activity [8]: 160 Zone units
Activity [9]: 0 Zone units
IC50 [6]: 3 mg/L (≈ 4.04 µM)

CC(C)C[C@H]1NC(=O)[C@H]2N=C(O[C@@H]2C)[C@H]2CSSC[C@@H](NC(=O)c3csc1n3)C1=N[C@H](C(=O)N[C@H](CC(C)C)c3nc(cs3)C(=O)N2)[C@@H](C)O1 [ULITHIACYCLAMIDE]
IC50 [6]: 0.035 mg/L (≈ 0.0459 µM)

O=c1[nH]cc(F)c(=O)[nH]1 [FLUOROURACIL]
Activity [16]: 0 Zone units
Activity [17]: 800 Zone units
